In the test the target is T1, enzyme ACAT-1 (Homo sapiens, UniProt P35610).
T1 construct: endogenous in cells; host or cells: HepG2
T1 sequence (P35610 1-550): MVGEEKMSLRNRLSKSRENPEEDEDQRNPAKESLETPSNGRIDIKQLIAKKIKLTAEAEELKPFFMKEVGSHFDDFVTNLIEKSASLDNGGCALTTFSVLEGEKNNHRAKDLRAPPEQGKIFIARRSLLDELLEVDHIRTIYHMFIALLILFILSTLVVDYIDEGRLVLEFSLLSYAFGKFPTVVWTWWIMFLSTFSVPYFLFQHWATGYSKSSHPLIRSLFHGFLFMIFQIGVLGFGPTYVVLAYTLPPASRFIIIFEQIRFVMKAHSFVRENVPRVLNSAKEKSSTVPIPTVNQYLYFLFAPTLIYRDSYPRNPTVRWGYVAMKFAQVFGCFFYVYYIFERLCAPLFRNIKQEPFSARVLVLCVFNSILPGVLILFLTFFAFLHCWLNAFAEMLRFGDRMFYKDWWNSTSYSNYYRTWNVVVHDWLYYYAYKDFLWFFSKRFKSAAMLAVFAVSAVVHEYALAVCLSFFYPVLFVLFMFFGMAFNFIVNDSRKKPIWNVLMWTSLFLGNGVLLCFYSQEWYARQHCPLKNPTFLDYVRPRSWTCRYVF
Description: primary HepG2 enzyme test: cell-based NBD-cholesterol fluorescence assay of ACAT-1 (SOAT-1) inhibition. The settings on record: HepG2 cells, NBD-cholesterol 1 μg/ml, incubation 6 h at 37° C., fluorescence excitation 490 nm / emission 540 nm. The procedure:
The compounds (I) according to the invention, as well as their pharmaceutically acceptable salts, solvates and/or hydrates, display SOAT-1 enzyme inhibiting properties. This inhibitory effect on the SOAT-1 enzyme is measured by a primary HepG2 enzyme test, as described below.
The compounds of formula (I) according to the invention were tested to evaluate their inhibitory activity with respect to the enzyme ACAT-1 based on the following work: “Identification of ACAT1- and ACAT2-specific inhibitors using a novel, cell based fluorescence assay: individual ACAT uniqueness”, J. lipid. Res (2004) vol 45, pages 378-386. The principle of this test is based on the use of NBD-cholesterol, an analogue of cholesterol with fluorescence depending on its environment. When it is in a polar environment it is weakly fluorescent, whereas in a non-polar environment it is strongly fluorescent. Free NBD-cholesterol localizes in the cell membranes and is weakly fluorescent in this polar environment. […]
The following method is used: HepG2 cells are incubated in the presence of NBD-cholesterol (1 μg/ml) and of the test compound of formula (I) in black, transparent-bottom 96-well plates at a rate of 30000 cells per well. […] After adding 50 μl of lysis buffer (NaPO4 10 mM, Igepal 1%) the plates are agitated for 5 min and, read in fluorescence (excitation 490 nm, emission 540 nm) on a FUSION instrument (Perkin Elmer).

As usually defined, the IC50 is the midpoint of a concentration-inhibition curve. A high value points to weaker potency.

In turn, `CC(C)c1cccc(C(C)C)c1NC(=O)NCC1(SCc2ccccc2)CCCCC1` [Compound (I.4), 1-(1-Benzylsulfanyl-cyclohexylmethyl)-3-(2,6-diisopropyl-phenyl)-urea] gave an IC50 of 71 nM.

(Values after patent US8283378B2, “Phenylurea inhibitors of the SOAT-1 enzyme and pharmaceutical/cosmetic compositions comprised thereof” (Galderma Research & Development, priority 2007, dated 2012).)
